Assay results published in patent publication US8722644B2, “Mixture of hyaluronic acid for treating and preventing peptic ulcer and duodenal ulcer” (Holy Stone Healthcare Co., Ltd., priority 2010, dated 2014).

Test system: rats that had Aspirin induced gastrointestinal ulcers
Assay: Treatment effects of PU98 on rats that had Aspirin induced gastrointestinal ulcers
Type: in vivo
Details: 200 mg Aspirin intraperitoneal day 1 to day 3 after fasting; thirty rats; internal abdominal bleeding upon dissection
Text: PU98 (composition of binary molecular weight of HA that are 70% HA with an average Mw of 2000 KDa and 30% HA with an average Mw of 1000 KDa in PBS solution, the final concentration is 0.5%; i.e. 0.5 g HA in 100 c.c. PBS solution).
Thirty eight-weeks-old SPF Sprague-Dawley male rats (BioLASCO Taiwan Co., Ltd.), were divided into 3 groups: study group (Aspirin/PU98), placebo group (Aspirin/PBS), control group (PBS), each group consisting of 10 rats with 2 rats housed per cage at the Animal Technology Institute Taiwan rodents room.
Before animal experimentation, rats were first fasted for 24 hours or more. From day one (D1) of experimentation to day three (D3), rats were given 1 ml of Aspirin (200 mg/ml) through intraperitoneal administration.
From day 4 to day 18, rats of the study group were given 1 ml of Aspirin (100 mg/ml) daily through intraperitoneal administration, they were also fed a 2 ml dosage of PU98 once every morning and afternoon.
From day 4 to day 18, rats of the placebo group were given 1 ml of Aspirin (100 mg/ml) daily through intraperitoneal administration, however they were fed a 2 ml dosage of PBS (placebo) once every morning and afternoon. […]
The present invention was analyzed by “student t test” to evaluate relationship between the study group, placebo group and control group.

CC(=O)Oc1ccccc1C(=O)O [Aspirin]
rats died on day 4 after Aspirin induction: 11
